In patent US20230122540A1, “SYSTEMS AND METHODS TO TRACK THE EVOLUTION OF SINGLE CELLS” (Genentech, Inc., priority 2020, published 2023):
Entries after “also recorded” stand apart in the source; their conditions may differ. Where two headings read alike, the source gives them in different places. One block for each compound: values may come before it.

Key:
[1] = test system: PC9 cells; assay: TraCe-seq experiment (barcoded PC9 cells, scRNA-seq on day four); type: cell-based, human; settings: for cell cycle arrest (GO): fraction of cells in GO state inferred by gene expression, day four
Experimental: To conduct the TraCe-seq experiment, 600 PC9 cells carrying unique barcodes were randomly selected and these cells were expanded for ˜12 doublings to establish the starting population. Single cell transcriptional profiling on a fraction of this population at ˜30× coverage of the barcodes was performed to record the baseline transcriptional programs and relative clonal abundance. 200K of these cells were seeded and were treated with either erlotinib, GNE-104, or GNE-069. Cells were harvested on day four and profiled by 10×scRNA-seq to determine the relative fitness of each clone and capture treatment-induced transcriptional changes (FIG. 17D).
TraCe-Seq barcode assignment: TraCe-Seq barcode recovery from scRNA-Seq FASTQs was performed using Salmon (v. 0.1.1). Briefly, custom augmented Salmon index was created using human reference GRCh38 and transgene GFP fused to one of 100,000 30-nt GC-optimized barcode in library. Transcript expression of demultiplexed per-cell FASTQs were then quantified using custom Salmon index. Cells with single GFP-barcode expression were assigned to corresponding TraCe-Seq barcode. Cells with multiple TraCe-Seq barcodes expressed were assigned to a single TraCe-Seq barcode if expression one TraCe-Seq was 3-fold higher than other detected TraCe-Seq barcodes.

[2] = test system: common EGFR mutant variants; assay: in vitro kinase inhibition assay; type: biochemical; settings: panel of 218 kinases
[3] = target: T1, EGFR (Homo sapiens, UniProt P00533, DEL746-750); assay: Western blot of EGFR and pEGFR in HCC827 cells; type: cell-based; settings: for EGFR degradation: HCC827 cells
T1 construct: does-dependent EGFR degradation induced by GNE-104 in HCC827 cells; endogenous in cells; host or cells: HCC827
Experimental: Immunoblotting: Immunoblotting performed using standard methods. Cells were briefly washed in ice-cold PBS and lysed in the following lysis buffer (1% NP40, 50 mM Tris, pH 7.8, 150 mM NaCl, 5 mM EDTA) plus protease inhibitor mixture (Complete mini tablets, Roche Applied Science, 11836170001) and phosphatase inhibitor mix (Thermo Fisher Scientific, 78420). Lysates centrifuged at 15,000 rpm for 10 minutes at 4° C. and the protein concentration determined by BCA (Thermo Fisher Scientific, 23227). Equal amounts of protein were resolved by SDS-PAGE on NuPAGE, 4-12% Bis-Tris Gels (Thermo Fisher Scientific, WG-1403) and transferred to nitrocellulose membrane (Bio-Rad, 170-4159). Membranes were blocked in blocking buffer (Li-Cor, 927-40000), incubated overnight with the indicated primary antibodies and analyzed by the addition of secondary antibodies IRDye 680LT Goat anti-Mouse IgG (Li-Cor, 926-68050) or IRDye 800CW Goat anti-Rabbit IgG (Li-Cor, 926-32211). The membranes were visualized on a Li-Cor Odyssey CLx Scanner. Anti-EGFR (MI-12-1) purchased from Medical and Biological Labs, anti-pEGFR (3777), anti β-Tubulin (2146) and anti-β-Actin (4970) purchased from Cell Signaling Technology. IR-conjugated secondary antibodies Goat anti-Mouse 680LT (926-68020), and Goat anti-Rabbit 800CW (926-32211) purchased from Li-Cor.

[4] = test system: PC9 cells; assay: Anti-growth effects in PC9 cells (clonogenic assay, cell counting, Incucyte imaging); type: cell-based, human; settings: 1 μM
Experimental: Compound dose matching: […] Clonogenic assay: Cells were seeded at desired densities in two to three replicates in 6-well plates and allowed to attach overnight. The following day cells were treated with the indicated compounds. Media containing the appropriate compounds was replenished every 48-72 hours. At the end of the assay, the cells were washed once with PBS, fixed and stained with crystal violet solution (Sigma Aldrich, HT90132) for 20 minutes, washed with water, and allowed to dry before scanning. […] For experiments shown in FIG. 27B, cells were treated with either DMSO or 1 μM ISRIB (Tocris Cat. No. 5284) for 24 h, and then co-treated with EGFR inhibitors for 8 days.

[5] = test system: ATF4, CHOP, GADD34; assay: qRT-PCR of pro-death genes downstream of ER stress; type: cell-based, human; settings: for induction of pro-death ER stress genes: PC9 cells, with GNE-104, very low non-toxic concentrations; for expression of key pro-death ISR genes downstream of ER stress (ATF4, CHOP, GADD34): PC9, HCC4006 and NCI-H1975 cells
Experimental: RNA extraction and qRT-PCR: RNA was extracted using Qiagen RNeasy Plus kit following manufacturer's instruction. RNA was reverse transcribed using High-Capacity cDNA Reverse Transcription Kit (Thermo Fisher Scientific Cat. No. 4368814). qPCRs were performed using TaqMan™ Fast Advanced Master Mix (Thermo Fisher Scientific Cat. No. 4444557) on ABI QuantStudio 7 Flex Real-Time PCR Systems. HPRT1 was used as the internal control to quantify relative gene expression levels. Taqman probes were obtained from Thermo Fisher Scientific (Cat. No. 431182, 4448490). These probes were used in the study: ATF4 Hs00909569_g1, DDIT3/CHOP Hs00358796_g1, PPP1R15A/GADD34 Hs00169585_m1, SLC7A5 Hs01001183_m1, ETV4 Hs00385910_m1, SPRY4 Hs00540086_m1, DUSP6 Hs04329643_s1, HPRT1 Hs02800695_m1.

[6] = test system: PC9 and H1975 cells; assay: Clonogenic / CellTiter-Glo assay with pharmacological ER stress modulators; type: cell-based
Experimental: (§1) Clonogenic assay: Cells were seeded at desired densities in two to three replicates in 6-well plates and allowed to attach overnight. The following day cells were treated with the indicated compounds. Media containing the appropriate compounds was replenished every 48-72 hours. At the end of the assay, the cells were washed once with PBS, fixed and stained with crystal violet solution (Sigma Aldrich, HT90132) for 20 minutes, washed with water, and allowed to dry before scanning. For experiments shown in FIG. 18E erlotinib concentration were determined to match the cell viability effect to 1 μM GNE-069 in each cell line, so that 1 μM erlotinib was applied to PC-9 and HCC2935, and 100 nM erlotinib was applied to HCC4006 and HCC827. For experiments shown in FIG. 27B, cells were treated with either DMSO or 1 μM ISRIB (Tocris Cat. No. 5284) for 24 h, and then co-treated with EGFR inhibitors for 8 days. For other experiments cells were treated with 1 μM GNE-104 for 24 h, and then co-treated with 0.5 μg/ml Tunicamycin (Sigma Aldrich, T7765), or 1 nM Thapsigargin (Sigma Aldrich, T9033) for three days.
Cell viability and cell death quantification: For experiments shown in FIGS. 24C, 27D, the indicated cells were seeded at desired densities in replicates in 24-well plates and allowed to attach overnight. The following day cells were treated with the indicated compounds. Media containing the appropriate compounds was replenished every 48 hours. At each media change, cell viabilities were quantified using CellTiter-Glo Luminescent Cell Viability Assay (Promega, G7572). For experiments shown in FIG. 191 and FIG. 29D, PC9 cells were seeded in replicates in 96-well plates and allowed to attach overnight. The following day cells were treated with the indicated compounds or compound combinations at the indicated concentrations. Induction of cell death was quantified 24 h post-treatment using Caspase-Glo 3/7 Assay System (Promega, G8093) and cell survival were measured 72 h post-treatment using CellTiter-Glo Luminescent Cell Viability Assay (Promega, G7572). […]

[7] = test system: PC9 cells; assay: scRNA-seq gene expression in barcoded PC9 cells (Example 3); type: cell-based, human; settings: for ISR pathway / ATF4 and SLC7A5 expression: Day 5 of treatment; for canonical MAPK target gene expression: day 5 of treatment
Text: The above-described workflow was used to evaluate adaptation of mutated EGFR lung cancer cells to treatment strategies including EGFR kinase inhibition (Erlotinib) and EGFR protein degradation (Degrader G-104 or Degrader) using the PC9 (non-small cell lung carcinoma) cell line model. Six hundred PC9 cells containing unique barcodes were expanded separately for 12 days. The clones were then pooled into groups of cells with replicate barcodes and subjected to a first scRNA-seq on Day 1. Subsequently, the groups of cells were treated with either DMSO (vehicle control), Erlotinib, or Degrader. On Day 5 of the treatment, a second scRNA-seq was performed to evaluate an initial response of the cells to the treatments. Treatment with Erlotinib or Degrader was continued for approximately two more months. At the endpoint of the treatment, a final scRNA-seq was performed on the surviving cells. scRNA-seq data was analyzed with Next Generation Sequencing technologies, and barcode quantities were determined for both treatments, as illustrated in FIGS. 4A-4B.
Single cell RNA-seq data was further analyzed to evaluate how Degrader resistant clones respond differently to Erlotinib versus Degrader. […] Compared to Degrader, Erlotinib activated genes involved in ER protein processing pathways.
Thus, PC9 cells were treated with either siNTC+Erlotinib, siEGFR+Erlotinib, or siEGFR+DMSO, then analyzed for ISR and MAPK genes after 72 hrs (via scRNA-seq), and assessed for cell viability at Day 6. […] Results shown in FIG. 11D illustrate decreased efficacy of Erlotinib when combined with siEGFR, as indicated by greater numbers of viable cells in the Erlotinib+siEGFR treatment group compared to treatment by only Erlotinib.

[8] = test system: PC9 cells; assay: Initial response of PC9 cells to Erlotinib (viability, phase contrast imaging); type: cell-based, human; settings: within five days, compared to the DMSO control
Experimental: Six hundred PC9 cells containing unique barcodes were expanded separately for 12 days. The clones were then pooled into groups of cells with replicate barcodes and subjected to a first scRNA-seq on Day 1. Subsequently, the groups of cells were treated with either DMSO (vehicle control) or Erlotinib. On Day 5 of the treatment, a second scRNA-seq was performed to evaluate an initial response of the cells to the treatments.

[9] = Crystal violet % Survival with ISR modulators (Example 3); type: cell-based
Experimental: Tunicamycin and Thapsigargin were used as inducers of ER stress, and Integrated Stress Response Inhibitor (ISRIB) was used to inhibit ISR activation. Cells were treated with Degrader, Degrader+Tunicamycin, or Degrader+Thapsigargin to assess the effect of ER stress on Degrader efficacy. In another experimental group, cells were treated either with Degrader, Erlotinib, or Erlotinib and ISRIB.

[10] = test system: H1975 cells; assay: Crystal violet viability of H1975 cells, Osimertinib plus Degrader (Example 3); type: cell-based, human; settings: 100 nM Osimertinib 4 hours, then + 1 uM Degrader 24 hours
Experimental: H1975 cells were treated first for 4 hours with 100 nM of the kinase inhibitor Osimertinib, then subjected to co-treatment with 100 nM Osimertinib+1 uM of Degrader for 24 hours.

[11] = test system: EGFR-mutant lung cancer cell lines; assay: Clonogenic and CellTiter-Glo assay in EGFR-mutant lung cancer cell lines; type: cell-based, human; settings: multiple EGFR-mutant lung cancer cell lines, vs erlotinib or GNE-069
Experimental: as §1, with “For experiments shown in FIG. 27B, cells were treated with either DMSO or 1 μM ISRIB (Tocris Cat. No. 5284) for 24 h, and then co-treated with EGFR inhibitors for 8 days. For other experiments cells were treated with 1 μM GNE-104 for 24 h, and then co-treated with 0.5 μg/ml Tunicamycin (Sigma Aldrich, T7765), or 1 nM Thapsigargin (Sigma Aldrich, T9033) for three days.” left out
Cell viability and cell death quantification: For experiments shown in FIGS. 24C, 27D, the indicated cells were seeded at desired densities in replicates in 24-well plates and allowed to attach overnight. […] At each media change, cell viabilities were quantified using CellTiter-Glo Luminescent Cell Viability Assay (Promega, G7572). […] Induction of cell death was quantified 24 h post-treatment using Caspase-Glo 3/7 Assay System (Promega, G8093) and cell survival were measured 72 h post-treatment using CellTiter-Glo Luminescent Cell Viability Assay (Promega, G7572). […]

Compound: C#Cc1cccc(Nc2ncnc3cc(OCCOC)c(OCCOCC#CC#CCOCC(=O)N[C@H](C(=O)N4C[C@@H](O)CC4C(=O)NCc4ccc(-c5scnc5C)cc4)C(C)(C)C)cc23)c1 (stereo in doubt) [GNE-069, (2R,4S)-1-((S)-2-(2-((6-(2-((4-((3-Ethynylphenyl)amino)-7-(2-methoxyethoxy)quinazolin-6-yl)oxy)ethoxy)hexa-2,4-diyn-1-yl)oxy)acetamido)-3,3-dimethylbutanoyl)-4-hydroxy-N-(4-(4-methylthiazol-5-yl)benzyl)pyrrolidine-2-carboxamide]
cell cycle arrest (GO) [1]: far greater cell cycle arrest (GO) than GNE-104
potency and selectivity profile in in vitro kinase inhibition assays [2]: comparable potency and selectivity profile as GNE-104
EGFR degradation [3]: fails to engage VHL (due the specific stereochemistry in the VHL-binding moiety) and degrade EGFR
anti-growth effects (inhibiting cell growth) [4]: comparable activity by all three measures

Compound: tunicamycin
induction of pro-death ER stress genes [5]: greatly induced pro-death ER stress genes
cytotoxic activity of GNE-104 on co-treatment ([6]; PC9 cells, very low non-toxic concentrations of ER stress inducer): enhanced the cytotoxic activity of the degrader GNE-104

Compound: C=CC(=O)Nc1cc(Nc2nccc(-c3cn(C)c4ccccc34)n2)c(OC)cc1N(C)CCN(C)C [osimertinib]
expression of key pro-death ISR genes downstream of ER stress (ATF4, CHOP, GADD34) [5]: significantly induced expression of key pro-death ISR genes

Compound: C#Cc1cccc(Nc2ncnc3cc(OCCOC)c(OCCOC)cc23)c1 [Erlotinib]
ISR pathway / ATF4 and SLC7A5 expression [7]: additionally upregulated on Day 5 of Erlotinib treatment
canonical MAPK target gene expression [7]: strongly suppressed canonical MAPK target genes
expression of key pro-death ISR genes downstream of ER stress (ATF4, CHOP, GADD34) [5]: significantly induced expression of key pro-death ISR genes
cell cycle arrest (GO) [1]: far greater cell cycle arrest (GO) than GNE-104
reduction in viability [8]: greater than 98%
anti-growth effects (inhibiting cell growth) [4]: comparable activity by all three measures

Compound: O=C(COc1ccc(Cl)cc1)NC1CCC(NC(=O)COc2ccc(Cl)cc2)CC1 (centres unmarked) [ISRIB]
efficacy of Erlotinib on addition of ISRIB (cell viability) [9]: loss of efficacy of Erlotinib
activation of ATF4, CHOP, GADD34 induced by EGFR kinase inhibitors ([5]; ISRIB for 24 hours before adding EGFR kinase inhibitor): blunted activation of ATF4, CHOP, and GADD34
cell killing by EGFR kinase inhibitors ([6]; ISRIB pre-treatment, PC9 and H1975 cells): decreased cell killing in both PC9 and H1975 cells

Compound: C/C=C(/C)C(=O)O[C@H]1C(C)=C2[C@H]([C@@H]1OC(=O)CCCCCCC)[C@@](C)(OC(C)=O)C[C@H](OC(=O)CCC)[C@@]1(O)[C@H]2OC(=O)[C@@]1(C)O [thapsigargin]
induction of pro-death ER stress genes [5]: greatly induced pro-death ER stress genes
cytotoxic activity of GNE-104 on co-treatment [6]: enhanced the cytotoxic activity of the degrader GNE-104

phospho-EGFR levels [3]: potently suppressed phospho-EGFR levels
Compound: C#Cc1cccc(Nc2ncnc3cc(OCCOC)c(OCCOCC#CC#CCOCC(=O)N[C@H](C(=O)N4C[C@H](O)C[C@@H]4C(=O)NCc4ccc(-c5scnc5C)cc4)C(C)(C)C)cc23)c1 [GNE-104, (2R,4R)-1-((S)-2-(2-((6-(2-((4-((3-Ethynylphenyl)amino)-7-(2-methoxyethoxy)quinazolin-6-yl)oxy)ethoxy)hexa-2,4-diyn-1-yl)oxy)acetamido)-3,3-dimethylbutanoyl)-4-hydroxy-N-(4-(4-methylthiazol-5-yl)benzyl)pyrrolidine-2-carboxamide]
ISR pathway / ATF4 and SLC7A5 expression [7]: does not activate the ISR pathway
canonical MAPK target gene expression [7]: strongly suppressed canonical MAPK target genes
reduction of absolute number and diversity of TraCe-seq barcodes ([1]; day four of treatment): less effective in reducing both the absolute number and the diversity of TraCe-seq barcodes
effect on kinase inhibitor activity [10]: attenuated kinase inhibitor activity
anti-growth effect [11]: reduced anti-growth effect
EGFR degradation [3]: significant dose-dependent degradation of EGFR
anti-growth effects (inhibiting cell growth) [4]: far less efficient in inhibiting cell growth compared to erlotinib and GNE-069; also recorded: less efficacious
